In PubChem BioAssay (NCI):
“And” between values parts separate entries of the source, which are not always exact repeats. Identical values can stand only once.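 48-hour exposure; five concentrations; linearly interpolated endpoints. GI50 = concentration required for 50% inhibition of growth. Definition used: TGI = concentration required for complete inhibition of growth.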

Experiments:
Test in all cases: growth of human tumour cells (NCI), 48 h
BT-549 breast = tested on: BT-549 breast
CAKI-1 renal = tested on: CAKI-1 renal
HCT-15 colon = tested on: HCT-15 colon
KM12 colon = tested on: KM12 colon
LOX IMVI melanoma = tested on: LOX IMVI melanoma
MCF7 breast = tested on: MCF7 breast
NCI-H522 lung = tested on: NCI-H522 lung
NCI/ADR-RES ovarian = tested on: NCI/ADR-RES ovarian
SK-MEL-28 melanoma = tested on: SK-MEL-28 melanoma
SK-OV-3 ovarian = tested on: SK-OV-3 ovarian

Structure (SMILES)	GI50 (BT-549 breast) [µM]	TGI (BT-549 breast)	GI50 (CAKI-1 renal) [nM]	TGI (CAKI-1 renal)	GI50 (HCT-15 colon) [nM]	TGI (HCT-15 colon) [µM]	GI50 (KM12 colon) [nM]	TGI (KM12 colon)	GI50 (LOX IMVI melanoma) [nM]	TGI (LOX IMVI melanoma)	GI50 (MCF7 breast) [nM]	TGI (MCF7 breast) [µM]	GI50 (NCI-H522 lung) [nM]	TGI (NCI-H522 lung)	GI50 (NCI/ADR-RES ovarian) [nM]	TGI (NCI/ADR-RES ovarian)	GI50 (SK-MEL-28 melanoma) [µM]	TGI (SK-MEL-28 melanoma)	GI50 (SK-OV-3 ovarian) [µM]	TGI (SK-OV-3 ovarian)
CC(=O)c1ccc2c(c1)N(CCCN1CCN(CCO)CC1)c1ccccc1S2	3.38	11.9 µM	1730	4.22 µM	1990	5.01	1970	4.04 µM	1680	3.26 µM	1780	3.52	1670	3.64 µM	3050	12.9 µM	1.73	3.23 µM	2.84	10.1 µM
CC(/C=C/C(O)=C1/C(=O)CNC1=O)=C\[C@@H](C)[C@H]1O[C@@]2(C)O[C@H](C(=O)[C@@H]3O[C@@]32C)[C@@H]1C		36.3 µM		57 µM		49.6		36.4 µM		33.5 µM		39.8				63.7 µM		38.7 µM		46.8 µM
Cn1c(=O)n(C)c2cc(CNCCNc3ccnc4cc(Cl)ccc34)ccc21	> 100	> 100 µM	36300	> 100 µM	31000	> 100	37300	> 100 µM	14300	30.1 µM	28600	> 100	30200	93.3 µM	> 100000	> 100 µM	16	30.2 µM	72.7	> 100 µM
C=CC(C)(C)n1cc(C2=C(O)C(=O)C(c3cn(C(C)(C)C=C)c4ccccc34)=C(O)C2=O)c2ccccc21		3.63 µM		6.56 µM		5.01		13.5 µM		11.2 µM		12.4		13 µM		6.72 µM		35 µM		10.4 µM
C/C(=C(/c1ccccc1)c1ccc(OCC(O)CNCCN2CCOCC2)cc1)c1ccccc1 (stereo not given)	10.1	22.2 µM	1670	3.49 µM	2190	5.4	2730	8.33 µM	1720	3.12 µM	3610	10.2	2220	6.18 µM	4920	17.2 µM	1.75	3.25 µM	11.1	24.8 µM
CCCc1nc(Cl)nc(Cl)c1Cl		0.0764 µM		0.433 µM		3.15		2.77 µM		1.62 µM		1.52		1.26 µM		> 22.4 µM		2.05 µM		6.95 µM
CC(C)(C)[Si](C)(C)OC1[C@@H](CNC(N)=O)O[C@@H](n2cnc3c(NC(=O)Nc4ccccc4)ncnc32)[C@H]1O[Si](C)(C)C(C)(C)C (stereo not given in full)	2.47	9.2 µM	1760	7.12 µM	2670	10.3	1090	2.2 µM	856	1.56 µM	1830	8.51	2360	8.25 µM	2930	9.81 µM	6.71	14 µM	3.29	9.53 µM
ClCc1cccc(Cn2cnc3c(Cl)nc(Cl)nc32)c1	1.69	3.23 µM	2220	5.85 µM	2410	6.84	1820	3.79 µM	1690	3.4 µM	2040	6.4	2720	5.32 µM	2420	5.23 µM	2.34	5.38 µM		
CCSc1ccc([C@@H]2[C@@H](O)C(=O)N2c2cc(OC)c(OC)c(OC)c2)cc1	0.0264	0.503 µM			< 10.9	> 44.3	< 13.3	33.7 µM	< 14.7	14.5 µM	< 10	15.7	< 10	< 0.0119 µM	15.7	23.9 µM	11.7	33 µM	0.0271	38.1 µM
CCCCCCNCCCNc1c2cc(OC)ccc2nc2cccc([N+](=O)[O-])c12	1.04	2.3 µM and 2.27 µM	240	0.797 µM and 0.748 µM	212	14.4	160	0.508 µM and 0.472 µM	272	0.542 µM and 0.974 µM	34.8	0.398	17.4	0.104 µM and 0.0516 µM	555	2.41 µM and 3.65 µM	0.305	0.474 µM and 2 µM	0.266	4.94 µM and 0.961 µM
CCn1cc(/C=C2\Oc3cc(OCC#N)ccc3C2=O)c2cc(OC)ccc21	0.229	20.3 µM	66.3	28.9 µM	153	> 100	546	> 100 µM	238	> 100 µM	209	> 100	2460	28.5 µM	161	> 32.9 µM	6.71	> 100 µM	1.7	> 78.5 µM
O=[N+]([O-])c1cc([As](Br)c2ccc(O)c([N+](=O)[O-])c2)ccc1O		3.84 µM		3.42 µM		> 20.8		4.06 µM		3.96 µM		> 20.8		0.45 µM		8.81 µM		3.31 µM		9.71 µM
COc1ccc(-c2c(C#N)c(N)nc(N3CCOCC3)c2C#N)cc1	20.9	> 100 µM	13000	31.8 µM	18800	62.4	21700	87.4 µM	14400	36.9 µM	21600	98.9	8650	43.6 µM	20600	87.3 µM	33.9	> 100 µM	4.99	27.3 µM
C=C(CN1CCc2c([nH]c3ccccc23)C1)c1ccc(C(=O)Nc2ccccc2N)cc1	5.29	17.7 µM	1670	8.25 µM	3500	28.1	3420	12.6 µM	4520	10.2 µM	3980	22.9	4130	11.5 µM	1510	17.1 µM	2.25	16.1 µM	3.14	11.6 µM
Clc1ccc(/C=C/c2ccc3ccccc3n2)cc1	3.16	> 71.8 µM	2290	> 57.9 µM	2080	> 100	1420	20.6 µM	2510	> 100 µM	467	> 100	255	0.763 µM	6270	29.4 µM	3.18	> 100 µM	0.519	> 21 µM
COc1ccc2c(c1)C(=O)/C(=C/c1cccc(OCC(=O)Nc3nc(C)c(C)s3)c1)O2	2.37	7.63 µM	271	1.16 µM	1340	2.98	75	2.62 µM	< 12.7	< 0.0178 µM	1630	3.48	51.7	0.107 µM	3760	29.6 µM	0.504	1.72 µM	12.8	25.6 µM
COc1cc(C2=NN(C(C)=O)C(c3cc(OC)c(OC)c(OC)c3)C2)ccc1O (stereo not given)	1.09	> 100 µM	317	> 21.5 µM	392	> 100	320	> 100 µM	618	> 100 µM	276	> 100	273	> 35.4 µM	283	> 100 µM	0.478	> 100 µM	0.307	> 100 µM
COc1cc([C@@H]2c3cc4c(cc3[C@H](OC(C)=O)[C@H]3COC(=O)[C@@H]23)OCO4)cc(OC)c1OC	0.419	> 68.5 µM	537	> 100 µM	371	> 100	298		551	> 100 µM	334	> 100	150	0.448 µM	336		0.729	> 100 µM	0.334	> 100 µM
CSc1ncnc2c1ncn2CC(=O)C1CCC2C3CCC4=CC(=O)CCC4(C)C3CCC12C (stereo not given)		9.89 µM		> 70.2 µM		> 77.1		9.88 µM		19.4 µM		14.9		24.5 µM		7.57 µM		28.2 µM		> 100 µM
CC(=O)c1cccc(NC(=O)C(=O)c2c(O)c3ccccc3oc2=O)c1		> 100 µM		> 100 µM		> 100		> 100 µM		> 100 µM		> 100		> 100 µM		> 100 µM		> 100 µM		> 100 µM
O=C1/C(=C\c2ccco2)Oc2ccccc21		> 100 µM		> 100 µM		> 100		> 100 µM		> 100 µM		> 100		> 100 µM		> 100 µM		> 100 µM		> 100 µM
c1ccc(-c2nc3n(c2-c2ccc4c(c2)OCO4)CCC3)nc1	10	> 25 µM	620	> 25 µM	766	> 25	5900	> 25 µM	7460	> 25 µM	7890	> 21.3	8140	> 25 µM	573	9.59 µM	9.29	> 22.8 µM	4.54	14.7 µM
O=C(c1ccc2ccccc2c1)c1nc2cc(F)ccc2[n+]([O-])c1C(F)(F)F	17.5	33 µM	4290	17.6 µM	13000	27.8	19000	39.4 µM	13800	26.9 µM	35600	> 100	13600	29.8 µM	21200	42.8 µM	15.9	30.3 µM	19.4	34.1 µM
CC(NC(=O)Cc1ccc(C(F)(F)P(=O)(OCc2ccc([N+](=O)[O-])o2)N(C)CCCCCl)cc1)c1ccc(OCC2CCCCC2)c(C(N)=O)c1 (stereo not given)	5.27	13.5 µM	15800	48.4 µM	4850	16.1	3320	10.2 µM	2060	5.87 µM	6530	41.4	3860	10.2 µM	6510	> 93.4 µM	12.2	25.9 µM	19.3	43.5 µM
CCCN(CCC)c1ccc(C=O)c(Cl)c1	24	> 80.4 µM	15100	> 66.9 µM	24000	> 100	28600	> 83.6 µM	23400	> 63.7 µM	1800	29.4	25200	82.2 µM	29000	> 100 µM	20	68.9 µM	24.4	> 100 µM
CCOC(=O)c1ccc(NC(=O)NC2=NCCS2)cc1	0.84	> 40.1 µM	1390	> 100 µM	8540	> 100	434	> 100 µM	39900	> 100 µM	517	> 100	352		505	> 49.6 µM	64.9	> 100 µM	1.03	7.76 µM
COc1cc(OC)c2sc(-c3ccc(-n4cncc4-c4ccc(OC)c(OC)c4)cc3)nc2c1	9.12	> 100 µM			> 100000	> 100	6800	> 100 µM	> 100000	> 100 µM	5370	> 100	5270	76.9 µM	> 100000	> 100 µM	> 100	> 100 µM	> 100	> 100 µM
